# From patent US20050282818A1, “Ubiquitin ligase inhibitors” (Rigel Pharmaceuticals, Inc., priority 2004, published 2005)
# Legend:
# [1] = target: T1, TRAF6/Uev1A/Ubc13 (Homo sapiens, UniProt Q9Y4K3); assay: TRAF6/Uev1A/Ubc13 plate-based ubiquitin ligase assay; format: biochemical
# T1 sequence (Q9Y4K3 1-522): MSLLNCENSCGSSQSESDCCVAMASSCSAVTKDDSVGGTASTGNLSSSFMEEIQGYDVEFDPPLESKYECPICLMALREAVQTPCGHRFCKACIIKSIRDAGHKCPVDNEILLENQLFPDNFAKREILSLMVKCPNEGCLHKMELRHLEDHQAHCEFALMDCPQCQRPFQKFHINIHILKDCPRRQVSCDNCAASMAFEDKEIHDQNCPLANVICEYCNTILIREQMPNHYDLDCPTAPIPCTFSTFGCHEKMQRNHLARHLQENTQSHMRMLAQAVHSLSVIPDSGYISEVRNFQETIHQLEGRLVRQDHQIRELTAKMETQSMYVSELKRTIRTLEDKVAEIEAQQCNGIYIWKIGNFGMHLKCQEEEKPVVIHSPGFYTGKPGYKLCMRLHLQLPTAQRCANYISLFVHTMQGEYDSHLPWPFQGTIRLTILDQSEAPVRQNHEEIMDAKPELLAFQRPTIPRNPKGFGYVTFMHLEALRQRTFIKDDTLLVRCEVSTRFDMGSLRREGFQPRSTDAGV
# How it was run: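 Ligase activity was read as luminescence from anti-Flag/HRP detection of Flag-ubiquitin bound to casein-blocked Ni-plates alongside His-ubiquitin after a 1 h room-temperature reaction. Buffer: 62.5 mM Tris pH 7.5, 6.25 mM MgCl2, 1.0 mM DTT, 2 μM ATP; E1, Uev1a/Ubc13 and TRAF6 added last to start. IC50s derived across compound concentrations.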
# [2] = target: T2, ROC1/CUL1 (Homo sapiens, UniProt P62877+Q13616); assay: ROC1/CUL1 ubiquitin ligase assay (SCF assay); format: biochemical
# T2 construct: made in house
# T2 sequence (P62877 whole entry): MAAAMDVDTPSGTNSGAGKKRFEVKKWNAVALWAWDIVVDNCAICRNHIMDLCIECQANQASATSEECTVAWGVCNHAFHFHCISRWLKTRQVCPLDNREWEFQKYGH
# T2 sequence (Q13616 whole entry): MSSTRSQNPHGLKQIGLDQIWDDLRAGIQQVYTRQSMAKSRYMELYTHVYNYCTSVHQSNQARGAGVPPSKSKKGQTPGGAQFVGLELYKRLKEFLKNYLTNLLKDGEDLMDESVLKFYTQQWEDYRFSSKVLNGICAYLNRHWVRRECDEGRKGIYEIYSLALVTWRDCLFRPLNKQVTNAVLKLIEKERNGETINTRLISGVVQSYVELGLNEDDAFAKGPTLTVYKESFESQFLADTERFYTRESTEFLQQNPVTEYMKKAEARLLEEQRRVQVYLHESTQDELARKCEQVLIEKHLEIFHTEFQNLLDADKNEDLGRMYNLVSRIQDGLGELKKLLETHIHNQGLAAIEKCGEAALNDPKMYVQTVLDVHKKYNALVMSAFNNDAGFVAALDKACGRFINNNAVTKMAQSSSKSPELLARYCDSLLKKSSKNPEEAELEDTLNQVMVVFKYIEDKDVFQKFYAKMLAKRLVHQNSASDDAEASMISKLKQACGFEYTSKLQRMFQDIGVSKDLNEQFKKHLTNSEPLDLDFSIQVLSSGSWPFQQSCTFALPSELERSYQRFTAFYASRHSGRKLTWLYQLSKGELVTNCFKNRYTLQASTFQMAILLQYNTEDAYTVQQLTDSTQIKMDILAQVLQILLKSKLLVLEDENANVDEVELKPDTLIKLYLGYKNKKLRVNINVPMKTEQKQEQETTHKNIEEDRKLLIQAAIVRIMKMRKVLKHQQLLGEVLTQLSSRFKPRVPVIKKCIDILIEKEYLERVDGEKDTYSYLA
# Method: Inhibition of ubiquitin ligase activity of E1+E2+E3 was measured using the protocol as described in WO 01/75145 with E3 as the ROC1/CUL1, ROC1/CUL2, or ROC2/CUL5 complex.
# The wells of nickel-substrate 96-well plates (Pierce Chemical) are blocked with 100 μl of 1 casein/phosphate buffered saline (PBS) for 1 hour at room temperature, then washed with 200 μl of PBST (0.1% Tween-20 in PBS) 3 times. To each well is added the following Flag-ubiquitin (see above) reaction solution: 62.5 mM Tris pH 7.5, 6.25 mm MgCl2, 0.75 mM DTT, 2.5 mM ATP, 2.5 mM NaF1, 2.5 nM Okadaic acid, 100 ng Flag-ubiquitin (made as described above).
# The buffer solution is brought to a final volume of 80 μl with Milipore-filtered water, followed by the addition of 10 μl DMSO.
# To the above solution is then added 10 μl of ubiquitination enzymes in 20 mM Tris buffer, pH 7.5, and 5% glycerol. E2-Ubch5c and E3-His ROC1/Cul1, ROC1/CUL2, and ROC2/CUL5 are made as described in WO 01/75145. E1 is obtained commercially (Affiniti Research Products, Exeter, U. K.). The following amounts of each enzyme are used for these assays: 5 ng/well of E1; […] E2; and 100 ng/well His-E3. Varying amounts of compounds according to the invention are added and the reaction allowed to proceed at room temperature for 1 hour.
# Following the ubiquitination reaction, the wells are washed with 200 μl of PBST 3 times. For measurement of the enzyme-bound ubiquitin, 100 gel of Mouse anti-Flag (1:10,000) and anti-Mouse Ig-HRP (1:15, 000) in PBST are added to each well and allowed to incubate at room temperature for 1 hour. The wells are then washed with 200 μl of PBST 3 times, followed by the addition of 100 μl of luminol substrate (1/5 dilution). Luminescence for each well is then measured using a fluorimeter.
# Table 2 below illustrates the inhibitory activity of the compounds of the invention determined by the TRAF6/Uev1A/Ubc13 assay as well as in the ICAM, APC and the ROC1/CUL1 Ubiquitin Ligase Assay (SCF Assay). The IC50 values were determined using a various concentrations of the compounds.
# [3] = test system: A549 cells; assay: Cell proliferation PAD assay, A549; format: cell-based; conditions: Homo sapiens, 3pt, 48 hours, read-out: A549 3pt
# How it was run: (§1)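 Each line, seeded at 2,000 cells/well, received duplicate 6.3-fold compound dilutions (10 mM stock, diluted 500× into medium) one day after plating. Exposure lasted 48 h; fixed cells were DAPI-stained and photographed, and images were analysed for live, apoptotic and dead cell numbers.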
# [4] = test system: H1299 cells; assay: Cell proliferation PAD assay, H1299; format: cell-based; conditions: Homo sapiens, NCI-H1299, 3pt, 48 hours, read-out: H1299 3pt
# How it was run: as §1
# [5] = test system: ICAM-1 expression in A549 cells; assay: ICAM assay (IL-1 induced ICAM-1/CD54 expression in A549 cells); format: cell-based, human; conditions: Homo sapiens, A549, ICAM assay
# How it was run: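 Luminescent immunostaining (anti-CD54, then anti-mouse IgG, 1 h) quantifies ICAM-1 on A549 cells induced 4 h at 37° C by IL-1 (4 μl of 25 ng/ml added). Compound is added 1 h before the cytokine to cells plated overnight at 10,000 per well.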
Structure (SMILES),IC50 [1] [µM],IC50 [2] [µM],IC50 [3] [µM],IC50 [4] [µM],IC50 [5] [µM]
"CCOC(=O)CSc1cc(NCCCOC(C)=O)c([N+](=O)[O-])c2nonc12 [compound 137, ethyl [(6-{[3-(acetyloxy)propyl]amino}-7-nitro-2,1,3-benzoxadiazol-4-yl)thio]acetate]",≥ 20,≥ 20,,,
"Cc1cccc(N2CCN(S(=O)(=O)c3ccc(Sc4cccc5cccnc45)c4nonc34)CC2)n1 [compound 196, 8-[(7-{[4-(6-methylpyndin-2-yl)piperazin-1-yl]sulfonyl}-2,1,3-benzoxadiazol-4-yl)thio]quinoline]",1 to 20,≥ 20,≥ 20,≥ 20,
"CC1CC(C)CN(S(=O)(=O)c2ccc(Sc3cccc4cccnc34)c3nonc23)C1 (centres unmarked) [compound 197, 8-({7-[(3,5-dimethylpipendin-1-yl)sulfonyl]-2,1,3-benzoxadiazol-4-yl}thio)quinoline]",1 to 20,≥ 20,1 to 20,1 to 20,
"Cc1ccc(N2CCN(S(=O)(=O)c3c(N4CCN(c5cccc(C)n5)CC4)ccc4nonc34)CC2)nc1 [compound 203, 5-[4-(6-methylpyridin-2-yl)piperazin-1-yl]-4-{[4-(5-methylpyridin-2-yl)piperazin-1-yl]sulfonyl}-2,1,3-benzoxadiazole]",1 to 20,≥ 20,,,≥ 20
"N#Cc1ccc(N2CCN(c3ccc4nonc4c3S(=O)(=O)N3CCN(c4ccc(C#N)cn4)CC3)CC2)nc1 [compound 210, 6-[4-({5-[4-(5-cyanopyridin-2-yl)piperazin-1-yl]-2,1,3-benzoxadiazol-4-yl}sulfonyl)piperazin-1-yl]nicotinonitrile]",≥ 20,≥ 20,≥ 20,1 to 20,
"N#Cc1ccc(N2CCN(S(=O)(=O)c3c(Sc4cccc5cccnc45)ccc4nonc34)CC2)nc1 [compound 212, 6-(4-{[5-(quinolin-8-ylthio)-2,1,3-benzoxadiazol-4-yl]sulfonyl}piperazin-1-yl)nicotinonitrile]",1 to 20,≥ 20,1 to 20,1 to 20,
"COC(=O)c1ccc(NS(=O)(=O)c2c(Sc3cccc4cccnc34)ccc3nonc23)cc1 [compound 215, methyl 4-({[5-(quinolin-8-ylthio)-2,1,3-benzoxadiazol-4-yl]sulfonyl}amino)benzoate]",1 to 20,≥ 20,,,≥ 20
"CC1CN(S(=O)(=O)c2c(Sc3cccc4cccnc34)ccc3nonc23)CC(C)O1 (centres unmarked) [compound 216, 8-({4-[(2,6-dimethylmorpholin-4-yl)sulfonyl]-2,1,3-benzoxadiazol-5-yl}thio)quinoline]",1 to 20,≥ 20,,,
"O=[N+]([O-])c1ccc(Nc2ccc3[nH]ncc3c2)c2nonc12 [compound 222, N-1H-indazol-5-yl-7-nitro-2,1,3-benzoxadiazol-4-amine]",1 to 20,≥ 20,≥ 20,1 to 20,
"O=[N+]([O-])c1ccc(Nc2ccc3cn[nH]c3c2)c2nonc12 [compound 223, N-1H-indazol-6-yl-7-nitro-2,1,3-benzoxadiazol-4-amine]",1 to 20,≥ 20,,,
"O=S(=O)(c1ccc(Sc2ccc(O)cc2)c2nonc12)N1CCC(O)(c2ccc(Cl)cc2)CC1 [compound 228, 4-(4-chlorophenyl)-1-({7-[(4-hydroxyphenyl)thio]-2,1,3-benzoxadiazol-4-yl}sulfonyl)piperidin-4-ol]",< 1,≥ 20,≥ 20,≥ 20,
"COC(=O)c1ccc(NS(=O)(=O)c2ccc(Sc3ccncc3)c3nonc23)cc1 [compound 256, methyl 4-({[7-(pyridin-4-ylthio)-2,1,3-benzoxadiazol-4-yl]sulfonyl}amino)benzoate]",≥ 20,≥ 20,,,
"O=S(=O)(c1cccc2nsnc12)N1CCC2(CC1)OCc1ccccc12 [compound 257, 1′-(2,1,3-benzothiadiazol-4-ylsulfonyl)-3H-spiro[2-benzofiiran-1,4′-piperidine]]",≥ 20,≥ 20,≥ 20,≥ 20,
"O=S(=O)(Nc1ccc(F)c(F)c1)c1ccc(Nc2ccc(F)c(F)c2)c2nonc12 [compound 264, N-(3,4-difluorophenyl)-7-[(3,4-difluorophenyl)amino]-2,1,3-benzoxadiazole-4-sulfonamide]",≥ 20,≥ 20,,,
"CN1CCN(S(=O)(=O)c2ccc(Sc3ccc(O)cc3)c3nonc23)CC1 [compound 266, 4-({7-[(4-methylpiperazin-1-yl)sulfonyl]-2,1,3-benzoxadiazol-4-yl}thio)phenol]",≥ 20,≥ 20,,,
"CN1CCN(S(=O)(=O)c2ccc(Sc3cccc4ccccc34)c3nonc23)CC1 [compound 267, 4-[(4-methylpiperazin-1-yl)sulfonyl]-7-(1-naphthylthio)-2,1,3-benzoxadiazole]",≥ 20,≥ 20,,,
"COc1ccccc1Sc1ccc(S(=O)(=O)N2CCN(C)CC2)c2nonc12 [compound 270, 4-[(2-methoxyphenyl)thio]-7-[(4-methylpiperazin-1-yl)sulfonyl]-2,1,3-benzoxadiazole]",≥ 20,≥ 20,,,
"O=C(Nc1ccc(N2CCN(c3ncc(C(F)(F)F)cc3Cl)CC2)c2nonc12)c1cccs1 [compound 281, N-(7-{4-[3-chloro-5-(trifluoromethyl)pyridin-2-yl]piperazin-1-yl}-2,1,3-benzoxadiazol-4-yl)thiophene-2-carboxamide]",1 to 20,1 to 20,,,
"O=[N+]([O-])c1ccc(N2CCC3(CC2)OCc2ccccc23)c2nonc12 [compound 284, 1′-(7-nitro-2,1,3-benzoxadiazol-4-yl)-3H-spiro[2-benzofuran-1,4′-piperidine]]",1 to 20,≥ 20,≥ 20,≥ 20,
"O=[N+]([O-])c1ccc(N2CCC(Oc3ccccn3)CC2)c2nonc12 [compound 287, 4-nitro-7-[4-(pyridin-2-yloxy)piperidin-1-yl]-2,1,3-benzoxadiazole]",≥ 20,≥ 20,,,
"O=[N+]([O-])c1ccc(N2CCC(Sc3ccccn3)CC2)c2nonc12 [compound 288, 4-nitro-7-[4-(pyridin-2-ylthio)piperidin-1-yl]-2,1,3-benzoxadiazole]",≥ 20,≥ 20,,,
"O=S(=O)(c1ccc(Sc2ccc3ccccc3n2)c2nonc12)N1CCC(O)(c2ccc(Cl)cc2)CC1 [compound 485, 4-(4-chlorophenyl)-1-({7-(quinolin-2ylthio)-2,1,3-benzoxadiazol-4-yl}sulfonyl)piperidin-4-ol]",≥ 20,≥ 20,,,
